Marks after values point to notes of the source that are not given here.
Assays:
mongrel male mice [1] = assay: Passive cutaneous anaphylaxis reaction; format: in vivo; conditions: PCA, oral 3 days, 2 µg/kg
Procedure: Experiments were carried out on mongrel male mice with initial body mass 22-24 g. Each group included 10 animals. Sensibilization of animals was accomplished by intradermal injection of 20-30 µl of the serum of mice obtained from preliminaryly immunized animals comprising reagent antibodies against chicken ovalbumin (OVA). […] In 48 hours after sensibilzation an anaphylaxis-provoking OVA dose (1 mg and 0,2 ml Evans blue in 0.2 ml normal saline) were intravenously injected to mice. Passive cutaneous anaphylaxis reaction intensity (PCA) was determined in 30 minutes by the size (area) of a blue spot on the internal skin surface in the site of reagent anibodies' administration. Spot size was measured in two mutually perpendicular directions and the result was expressed in mm^2.

mongrel guinea-pigs = assay: Food anaphylaxis (active anaphylactic shock) in OVA-sensitized guinea pigs; conditions: oral 3 days before provoking anaphylaxis, 1000 µg/kg
Male guinea pigs = assay: Antigen-induced bronchospasm in actively sensitized guinea pigs; format: in vivo; conditions: for Bronchospasm (percent of the maximum value): sensitized guinea pigs
Procedure: Antiasthmatic effect of the test compounds was studied using an antigen-induced bronchospasm model in actively sensitized guinea pigs according to the Andersson method [Andersson P. Antigen induced bronchial anaphylaxis in actively sensitized guinea pig. Allergy (1980), Vol. 35, pp. 65-71].
Male guinea pigs were sensitized with intramuscular injection of 0.5 ml suspension comprising 20 micrograms ovalbumin (OVA, manufactured by the Sigma company [grade III]) and 100 mg Al(OH)3 per one animal. Anaphylaxis-provoking dose 150-200 µg/kg OVA in 0.1 ml normal saline was intravenously (v. jugularis) injected on day 26 after sensibilization. Bronchospasm induction and measuring external respiration parameters were carried out according to the method described in Yu-Hong L., Barnes P., Rogers D. Inhibition of neurogenic plasma exudation and bronchoconstriction by a K+ channel activator, BRL 38227, in guinea pig airways in vivo. Europ. J. Pharmacol. (?), Vol. 239, pp.257-259]. Measurement of respiration parameters was performed using a transducer (Ugo Basel, model 7020), connected with a cannula and a recorder (Millichrome), recording breathing amplitude. […] Efficacy of compounds was determined by change in bronchospasm value.
Inthal was used as a reference drug that was administered to animals at a dose 5 µg/kg according to the same dosage regimen as the test substances were administered. The control group of animals received equivalent amount of normal saline.
Groups of animals: group 1 - control; group 2 - animals given Inthal; group 3 - animals given oral compound XLIV; group IV - animals given oral compound III; group 5 - animals given intratracheal compound III; group 6 - animals given compound XLIX, group 7 - animals given compound XXXI, group 8 - animals given compound XLVI; group 9 - animals given compound VI, group 10 - animals given compound XLVIII.

P-450 and B5 cytochromes = assay: Hepatic content of P-450 and B5 cytochromes (microsomal liver fraction); format: in vivo, guinea pigs; conditions: guinea pig liver microsomes; administered three times 72, 48 and 24 hours before
Procedure: Change in hepatic monooxygenase system was studied on mongrel male guinea pigs with initial mass 250-300 g; each group included 12 animals. […]. The content of P-450 and […] cytochromes was measured according to the published method [Omura T., Scato R. The monooxide binding pigment of liver microsomes. 11. Solubilization, purification and properties. J. Chem. (1964), Vol. 239, pp. 2379-2385] in microsomal liver fraction, isolated using differential centrifugation method [Ahokas J., Pelkonen O., Karkin N. Charcaterisation of BP-hydroxylase of Trout-liver. Cancer Res. (1977), Vol. 37, pp. 3737-3743]. The priority method {Izotov M.V., Scherbakov V.M., Devichensky V.M. et al. The method of determining the content of P-450 cytochrome isoenzymes in liver microsomes. The inventor's certificate No 1,488,738. B.I. (1989), No 3.-6.06.09, ICI, 01. - No 33/15, No 33/48]. Microsomal protein content was determined using the modified Lowry method [Hartree E. Determination of protein: a modification of the Lowry method, that gives a linear photometric responces. Ann. Biochem. (1972), Vol. 48, pp. 422-427].

[C^14]-arachidonic acid = Metabolism of [C^14]-arachidonic acid in pulmonary tissue homogenate of treated mice; format: in vivo, CBA male mice; conditions: CBA mice lung homogenate; 80 µg/kg for three days
Procedure: Studies were carried out on CBA male mice fed a standard vivarium ration. […] Then animals were sacrified, their lungs were taken out, frozen in liquid nitrogen, homogenized in a glass homogenizer manufactured by the Wheaton company (U.S.A.) at +4°C in 10 volumes 0.05 M Tris-HCl buffer. […] Densitometry of the autoradiochromatograms obtained on the X-ray films X-Omat AR (Kodak, U.S.A.) and HS 11 (ORWO, Germany) were performed on the KS 3 densiscan (Kipp and Zonnen, Holland). Quantative analysis of individual eucosanoids was carried out using radiometry of the fractions obtained with high performance liquid chromatography (the Gilson company HPLC-system, France; the Du Pont company ZORBAX C8 column, U.S.A.) and with elution of spots on TLC-plates.

[2] = tested on: hepatic P-450 cytochrome system; assay: Hexenal sleep duration in mice; format: in vivo; conditions: CBF1 mice, oral 3 days, control 25.91 ± 1.57
Procedure, shortened: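 Male mice (several inbred/hybrid lines, 18-20 g, n=10) and mongrel male guinea pigs (250-300 g, n=24) given compounds orally in drinking water for three days at 50 and 500 µg/kg. Hexenal given 24 h after last dose ([…]); sleep duration recorded in minutes.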

mongrel male mice [3] = assay: Delayed hypersensitivity induced by picryl chloride (TCB), local ointment; format: in vivo; conditions: mice, TCB
Procedure: Effect study of the compounds on the delayed type hypersensitivity reaction induced in mice by 2.4.6-trichlorobenzol (TCB) was carried out according to the method of Tarayre et al. [Tarayre J.P., Barbara M., Aliaga M., Tisne-Versilles. Comparative actions of immunosuppressants, glucocorticoids and non-steroidal antiinflammatory drugs on various models of delayed hypersensitivity and on a non-immune inflammation in mice. Arzneim.-Forsch. Drug Res. (1990), Vol. 40, pip.1125-1131].
Studies were conducted on mongrel male mice with initial body mass 30-35 g. Each group included 10 animals. Mice were sensitized with 0.1 ml 3% TCB solution in acetone application on a shaved abdominal area. In 7 days, the anaphylaxis-provoking TCB dose (0.025 ml of 3% solution) was applied on both surfaces of the right ear. In 30 minutes 0.05 ml of the test ointment were rubbed into the same surfaces. 24 hours after edema induction, mice were sacrified, ears were cut off and weighed. Allergic reaction intensity was assessed by change in weight in grams of the right ear (the test one) in relation to the left ear (the control ear).
Allergic reaction inhibition expressed in percent was calculated according to the formula: 100-[(R-L(exper.))/(L):(R-L(control))/(L)x100](%) [formula] where R - the right ear weight, L - the left ear weight.
The test compounds were applied on the ear in the form of 1% and 5% ointment the base of which were 10% methylcellulose solution and propylene glycol at 1:1 ratio.
Groups of animals: • Group 1 - control, ointment base without active substance was applied on the ear of animals. • Group 2 - ointment base comprising 1% compound III was applied on the ear of animals. • Group 3 - ointment base comprising 1% compound XVII was applied on the ear of animals. • Group 4 - ointment base comprising 5% compound XLVIII was applied on the ear of animals.

white mongrel male rats = assay: Paw edema induced by Freund's complete adjuvant; format: in vivo; conditions: rats, FCA edema
Procedure: Experiment was carried out on white mongrel male rats weghing 280-300 g. The model of paw edema induced by Freund's complete adjuvant (FCA), was reproduced according to the method of Ezamuzie and Umezurike [Ezamuzie Ch., Umezurike C.C. Effect of histamine H2-receptor antagonists on acute inflammatory of the rat paw oedema. J. Pharmacol. (1989), Vol. 41, pp. 261-265]. Paw volume measurement was done using a plethysmograph (Ugo Basile). Inhibition of inflammatory reaction expressed in percent, as calculated according to the formula: 100-[(R-L(exper.))/(L):(R-L(control))/(L)x100](%) [formula] where R - the right paw volume, L - the left paw volume.
Each group included 10 animals.
Group of animals: • Group 1 - control, animals were administered 0.5 ml of 1% starch solution. • Group 2 - animals were administered the compound XLVIII. • Group 3 - animals were administered the compound III. • Group 4 - animals were administered Naproxene.

[4] = tested on: Strain Aichi of type A human influenza virus; format: in vivo; conditions: 50 µg/kg orally
[5] = 50 µg/kg per os, 72, 48 and 18 hours prior to bronchospasm induction
[6] = intragastral four times 50 µg/kg

Structure (SMILES): CCOC(=O)N1CCC(=C2c3ccc(Cl)cc3CCc3cccnc32)CC1 [Claritine, reference compound]
- Percent of the reaction inhibition (mongrel male mice [1]): 92.8%
- Reaction intensity, mm^2 (mongrel male mice [1]): 6.4 ± 2.3**^2 mm^2
- Anaphylactic index (mongrel guinea-pigs): 2.03
- Lethality in percent (mongrel guinea-pigs): 25.0%
- Seizures in percent (mongrel guinea-pigs): 53.3%

Structure (SMILES): O=C([O-])c1cc(=O)c2c(OCC(O)COc3cccc4oc(C(=O)[O-])cc(=O)c34)cccc2o1.[Na+].[Na+] [Inthal, reference compound]
- decrease in bronchospasm value (Male guinea pigs; as compared with the control values): ~50%
- Bronchospasm (percent of the maximum value) (Male guinea pigs; 5 mg/kg, 72, 48 and 18 hours prior to bronchospasm induction): 40.7 3.4* percent of the maximum value

Structure (SMILES): CCC1(c2ccccc2)C(=O)NC(=O)NC1=O [Phenobarbital, reference compound]
- B5 /P-450 (P-450 and B5 cytochromes): 0.81
- B5 cytochrome nM/mg of protein (P-450 and B5 cytochromes): 1.21 ± 0.10 nM/mg of protein
- P-450B cytochromes nM/mg of protein (P-450 and B5 cytochromes): 0.76 ± 0.08 nM/mg of protein
- P-450B/p-450L (P-450 and B5 cytochromes): 1.02
- P-450 cytochrome nM/mg of protein (P-450 and B5 cytochromes): 1.50 ± 0.09 nM/mg of protein
- 5-HETE+HHT, percent of AA conversion ([C^14]-arachidonic acid): 10.5 ± 0.26% of AA conversion
- 6-keto-PGF1α, percent of AA conversion ([C^14]-arachidonic acid): 4.12 ± 0.12% of AA conversion
- 12-, 15-HETE, percent of AA conversion ([C^14]-arachidonic acid): 27.1 ± 0.11% of AA conversion
- PGE2, percent of AA conversion ([C^14]-arachidonic acid): 3.82 ± 0.14% of AA conversion
- PGF2α, percent of AA conversion ([C^14]-arachidonic acid): 7.91 ± 0.08% of AA conversion
- Phospholipids, percent of AA conversion ([C^14]-arachidonic acid): 8.18 ± 0.21% of AA conversion
- TXB2, percent of AA conversion ([C^14]-arachidonic acid): 6.21 ± 0.18% of AA conversion
- Unmetabolized AA, percent of AA conversion ([C^14]-arachidonic acid): 14.5 ± 0.28% of AA conversion

Structure (SMILES): NC(CCC(=O)NCCc1c[nH]c2ccc(O)cc12)C(=O)O [compound XLIX, γ -L-glutamylserotonine]
- Hexenal sleep duration (minutes) ([2]; 50 µg/kg): 19.68 ± 2.04** minutes
- Bronchospasm (percent of the maximum value) (Male guinea pigs; [5]): 33.0 9.4* percent of the maximum value

Structure (SMILES): N[C@@H](CCC(=O)NCCc1c[nH]c2ccccc12)C(=O)O [compound XLVIII, γ -L-glutamyltryptamine]
- Reaction inhibition (%) (mongrel male mice [3]; 5% ointment): 54%
- weight increment (mongrel male mice [3]; 5% ointment): 3.7 ± 0.81 g
- Weight of years (g) Right (mongrel male mice [3]; 5% ointment on right ear 30 minutes after challenge, 24 hours): 17.9 ± 0.94 g
- Weight of years (g) left (mongrel male mice [3]; left (control) ear of animals given 5% ointment): 14.2 ± 0.98 g
- Hexenal sleep duration (minutes) ([2]; 50 µg/kg): 16.27 ± 1.26** minutes
- Inflammation inhibition (%) (white mongrel male rats; [6]): 19%
- Volume increment (white mongrel male rats; [6]): 0.65 ± 0.04
- Volume of paws (conditional units) left (white mongrel male rats; [6]): 1.30 ± 0.62 conditional units
- Volume of paws (conditional units) Right (white mongrel male rats; intragastral four times 50 µg/kg 72, 48, 24 and 1 hour before FCA): 1.95 ± 0.48 conditional units
- MLT, days ([4]; series with control - 1 (5.76), 3 days before and 10 days following infection): 9.58*^1 days
- Survival rate in percent ([4]; series with control - 1 (16.7)): 34.5*^1%
- Protection degree in percent ([4]; series with control - 1): 17.8%
- Bronchospasm (percent of the maximum value) (Male guinea pigs; [5]): 22.0 3.4* percent of the maximum value

Structure (SMILES): CCCCCC(=O)NCCc1c[nH]c2ccccc12 [compound XXXI, N-HEXANOYLTRYPTAMINE]
- Hexenal sleep duration (minutes) ([2]; 50 µg/kg): 12.59 ± 0.88*** minutes
- Hexenal sleep duration (minutes) ([2]; 500 µg/kg): 12.61 ± 1.45*** minutes
- Bronchospasm (percent of the maximum value) (Male guinea pigs; [5]): 39.3 7.6* percent of the maximum value
